Experimental findings from patent US20030077768A1, “Use of xylene monooxygenase for the oxidation of substituted polycyclic aromatic compounds” (priority 2001, published 2003) are described below.

Molecules are shown by their SMILES.

For series [1], the system named is ASU1 xylene monooxygenase. The series can be described thus: Oxidation of 2,6-DMN by Escherichia coli recombinant with cloned ASU1 xylene monooxygenase genes (Clone 4a). Format: cell-based, Sphingomonas strain ASU1. To be noted: E. coli Clone 4a; M9 medium; 24 mg 2,6-DMN in FC-75 carrier phase; 37° C.; HPLC and GC/MS; metabolites 6-M-2-HMN, 6-M-2-NA, 2,6-NDC. The method, then:
(§1) HPLC system used was a Hewlett Packard 1100 series with a photo diode array detector and LC/MSD-ESI Negative ion. Column used was Hewlett Packard part #880975-902 Zorbax® SB-C18 (4.6×12.5 mm, 5 micron), purchased from Agilient Technologies (Foster City, Calif.). The column temperature was controlled at 30° C. Mobile phase was […] ammonium acetate [20 mL 1 M ammonium acetate in 1800 mL water (solvent-2=S-2)] and acetonitrile (Solvent-1=S-1). The gradient used was 0-3 min 10% S-1 and 90% S-2, gradient was increased to 100% S-1 in 33 min, and again reduced to 10% S-1 and 90% S-2 in 3 min. Flow rate used for the mobile phase was 0.9 mL/min. 100 μL samples were injected, 230 nm wavelength was used for detection of the intermediates of 2,6-dimethylnaphthalene. Intermediates were prepared by as follows, as intermediates needed were not available in the market. Intermediates prepared were 6-methyl-2-napthoic acid, 6-methyl-2-hydroxymethylnaphthalene, and 2,6-Bis(hydroxymethyl)naphthalene. The retention time and diode array scans of the intermediates matched with the prepared standards. The mass spectrometer fragmentation pattern of the 6-methyl-2-napthoic acid in the sample matched that of the standards prepared.
(§2) GC/MS was also used to analyze the samples. […]
(§3) The conversion of 2,6-DMN to 2,6-NDC was monitored by reverse phase HPLC. […]

Series [2] is described as follows: Aqueous solubility (statement). The class given is physicochemical.
For series [3], the target named is T1, pWWO xylene monooxygenase (Pseudomonas putida, UniProt P21395).
T1 construct: A fragment of pWWO DNA that contained xylM and xylA was cloned into a small, multicopy plasmid; expressed in transfected cells; host or cells: Escherichia coli TOP10 carrying pCR2.1-TOPO with the 2.4 kb pWWO xylM-xylA PCR fragment from strain ATCC 33015 (Clone 6f)
T1 sequence (P21395 whole entry, the tested form may be a part): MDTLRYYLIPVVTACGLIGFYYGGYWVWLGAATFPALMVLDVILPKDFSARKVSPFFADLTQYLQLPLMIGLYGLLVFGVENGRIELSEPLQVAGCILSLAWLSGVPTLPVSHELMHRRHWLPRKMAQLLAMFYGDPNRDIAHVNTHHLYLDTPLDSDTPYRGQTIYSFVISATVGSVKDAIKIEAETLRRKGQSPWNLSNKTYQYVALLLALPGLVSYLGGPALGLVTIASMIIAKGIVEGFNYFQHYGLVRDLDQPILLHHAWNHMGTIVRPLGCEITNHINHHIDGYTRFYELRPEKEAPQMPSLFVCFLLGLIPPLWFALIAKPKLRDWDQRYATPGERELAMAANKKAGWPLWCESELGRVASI
The series can be described thus: Oxidation of 2,6-DMN by Escherichia coli recombinant with cloned pWWO xylene monooxygenase genes (Clone 6f). The class given is cell-based. The settings on record: E. coli Clone 6f; M9 medium; 24 mg 2,6-DMN in FC-75 carrier phase; 37° C.; HPLC and GC/MS; metabolites 6-M-2-HMN, 6-M-2-NA, 2,6-HMN. The method, then: as §1, §2, §3

The subject of the next series is Sphingomonas strain ASU1. As to the kind of experiment: Carbon source utilization (growth on S12 agar) by strain ASU1. Format: cell-based. The settings on record: compound as sole source of carbon and energy, 28° C., listed as 2,6-DMN. The method, then: S12 agar was used to isolate bacteria from liquid enrichment cultures that grow on 2,6-DMN and to test isolates for growth with various sources of carbon and energy. S12 agar was prepared by adding 1.5% Noble agar (DIFCO) to S12 medium.
Since 2,6-DMN has low aqueous solubility, bacteria growing in S12 medium were supplied with 2,6-DMN by adding a few flakes of the compound directly to the culture. Bacteria growing on S12 agar were supplied with naphthalene, 2-methylnapthalene or 2,6-DMN by placing a few flakes of the compound on the interior of the petri dish lid. All petri dishes were sealed with parafilm and incubated with the lid on the bottom.
Bacteria that grow on 2,6-DMN were isolated from an enrichment culture. The enrichment culture was established by inoculating 0.1 mL of activated sludge into 10 mL of S12 medium in a 125 mL screw cap Erlenmeyer flask. The activated sludge was obtained from a DuPont wastewater treatment facility. The enrichment culture was supplemented with adding yeast extract (0.001% final concentration) by adding a few flakes of 2,6-DMN directly to the culture medium. The enrichment culture was incubated at 28° C. with reciprocal shaking. The culture was diluted every 4 to 7 d by replacing 9 mL of the culture with the same volume of S12 medium with 0.001% yeast extract and a few additional flakes of 2,6-DMN. […]

As to `Cc1ccc2cc(C)ccc2c1` [2,6-dimethylnaphthalene, 2,6-Dimethylnaphthalene], the “Substrate for the ASU1 xylene monooxygenase (oxidation by Clone 4a)” value in series [1] was “substrate”. In series [2], the aqueous solubility result is recorded as “low”. For the same molecule, the “Substrate for the pWWO xylene monooxygenase (oxidation by Clone 6f)” value in series [3] is listed as “substrate”. The “Growth on Carbon Source” value with Sphingomonas strain ASU1 is on record as “able to grow”.
